Source: doi:10.1101/2025.05.29.656899v1 (biorxiv, 2025)

What was measured:
Assay in all cases: glucosylation kinetics, Michaelis-Menten
Type in all cases: biochemical
[1] = molecular target: T1, UGT72B19 (Fagopyrum esculentum, UniProt A0A0A1H7P3); conditions: UDP-glucose donor; phosphate buffer pH 8.0; 39 °C
T1 sequence (A0A0A1H7P3 1-474): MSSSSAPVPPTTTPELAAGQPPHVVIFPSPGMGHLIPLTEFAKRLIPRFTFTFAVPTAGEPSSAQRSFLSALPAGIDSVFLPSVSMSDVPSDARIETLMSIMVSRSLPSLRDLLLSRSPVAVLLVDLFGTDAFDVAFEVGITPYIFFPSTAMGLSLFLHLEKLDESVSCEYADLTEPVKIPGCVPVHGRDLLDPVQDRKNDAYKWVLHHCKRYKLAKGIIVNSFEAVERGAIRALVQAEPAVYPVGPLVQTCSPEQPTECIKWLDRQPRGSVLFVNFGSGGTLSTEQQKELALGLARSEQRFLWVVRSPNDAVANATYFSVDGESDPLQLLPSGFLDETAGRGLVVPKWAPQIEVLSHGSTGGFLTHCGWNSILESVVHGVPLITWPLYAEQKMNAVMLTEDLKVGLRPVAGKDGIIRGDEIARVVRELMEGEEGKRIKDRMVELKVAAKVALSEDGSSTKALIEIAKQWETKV

[2] = molecular target: T2, UGT71C1 (Arabidopsis thaliana, UniProt O82381); conditions: UDP-glucose donor; phosphate buffer pH 8.0; 30 °C
T2 sequence (O82381 1-481): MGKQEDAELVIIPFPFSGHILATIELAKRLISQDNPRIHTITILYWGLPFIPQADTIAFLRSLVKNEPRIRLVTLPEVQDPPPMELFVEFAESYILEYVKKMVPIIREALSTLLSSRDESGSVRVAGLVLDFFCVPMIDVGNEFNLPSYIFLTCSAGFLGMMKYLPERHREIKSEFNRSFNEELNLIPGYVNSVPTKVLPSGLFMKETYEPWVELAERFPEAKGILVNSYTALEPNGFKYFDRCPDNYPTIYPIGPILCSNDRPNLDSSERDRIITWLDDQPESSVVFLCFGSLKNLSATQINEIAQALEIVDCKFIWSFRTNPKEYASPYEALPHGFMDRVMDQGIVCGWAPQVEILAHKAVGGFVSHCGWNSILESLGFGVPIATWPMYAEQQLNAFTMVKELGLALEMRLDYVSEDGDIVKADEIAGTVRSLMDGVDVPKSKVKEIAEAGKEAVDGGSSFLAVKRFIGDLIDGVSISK

[3] = molecular target: T3, UGT72B68 (Solanum lycopersicum, UniProt D7S016); conditions: UDP-glucose donor; phosphate buffer pH 8.0; 35 °C
T3 sequence (D7S016 1-476): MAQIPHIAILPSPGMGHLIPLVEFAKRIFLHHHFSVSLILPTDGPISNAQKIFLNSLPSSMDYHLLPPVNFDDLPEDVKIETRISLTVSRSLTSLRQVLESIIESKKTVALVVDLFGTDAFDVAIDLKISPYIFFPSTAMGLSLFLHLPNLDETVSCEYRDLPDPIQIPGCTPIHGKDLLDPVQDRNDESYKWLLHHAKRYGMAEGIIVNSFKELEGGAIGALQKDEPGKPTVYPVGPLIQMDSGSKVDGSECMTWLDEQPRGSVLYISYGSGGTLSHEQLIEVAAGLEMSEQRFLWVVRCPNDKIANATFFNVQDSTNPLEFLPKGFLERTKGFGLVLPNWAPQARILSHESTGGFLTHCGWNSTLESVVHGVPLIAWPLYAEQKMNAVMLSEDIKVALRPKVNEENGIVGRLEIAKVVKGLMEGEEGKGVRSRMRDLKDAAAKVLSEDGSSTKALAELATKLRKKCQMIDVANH

## COC(=O)c1ccccc1N [MANT, methyl anthranilate]
[1]
  Km: 212 ± 19.1 µM
[2]
  Km: 164 ± 22 µM
[3]
  Km: 347 ± 45.7 µM
